From patent US10697020B2, “MicroRNA-129 as a biomarker for colorectal cancer” (THE RESEARCH FOUNDATION FOR THE STATE UNIVERSITY OF NEW YORK, priority 2013, dated 2020)

What was measured:
[1] = test system: 3′-UTR of BCL2 mRNA; test: Luciferase assay, pMIR-REPORT-3′-UTR-BCL2 in HCT116 cells; type: cell-based, human; settings: 10 nM, 24 h, normalized to negative miRNA
Procedure: The predicted miR-129 binding sequence (wild-type, underlined) or a mismatch sequence (mutant, italic underlined) in the 3′UTR of Bcl2 mRNA were synthesized with SpeI and PmeI restriction site overhangs (Invitrogen). After annealing, double strand oligonucleotides were inserted into the pMIR-REPORT plasmid (Invitrogen), downstream of the firefly luciferase reporter. The sequences of these synthesized oligonucleotides are:
Twenty-four hours before transfection, 1.5×10^4 cells were plated in 96-well plate. 10 nM of miR-129 or negative miRNA was transfected into cells together with 100 ng of pMIR-REPORT-3′-UTR-BCL2 (wild-type or mutant) and 1 ng of Renilla luciferase plasmid pRL-SV40 (Promega, Madison, Wis., USA) by DharmaFect Duo (Dharmacon, Lafayette, Colo., USA) following the manufacturer's protocol. Luciferase assay was performed 24 hour after transfection by dual-luciferase reporter assay system (Promega). For each sample, firefly luciferase activity was normalized to Renilla luciferase activity and the inhibition by miR-129 was normalized to the control miRNA.

[2] = test system: HCT116, RKO and SW480 cells; test: Apoptosis assay (annexin V / propidium iodide, flow cytometry); type: cell-based, human; settings: all colorectal cancer cell lines tested (HCT116, RKO, SW480); 48 h after transfection; vs negative miRNA
Procedure: (§1) HCT116, RKO and SW480 cells were plated in 6-well plates at 2×10^5, 1×10^5 and 1×10^5 per well, respectively. Twenty-four hours after plating, 100 nM of miR-129 precursor (Ambion, Carlsbad, Calif., USA) or siRNA against BCL2 (Dharmacon, Lafayette, Colo., USA) were transfected to the cells with oligofectamine (Invitrogen, Carlsbad, Calif., USA) in accordance with the manufacturer's protocol. Negative miRNA (Ambion) was also transfected as a negative control.
Forty-eight hours after transfection, cells were harvested, stained with propidium iodide and anti annexin-V antibody (Annexin V-FITC Apoptosis Detection kit, BD Biosciences, San Jose, Calif., USA) following the manufacturer's protocol, and stained cells were detected by flow cytometry. The experiments for the apoptosis assay were performed at least three times.

[3] = test system: SW480 cells; test: Cell proliferation assay (WST-1), SW480; type: cell-based, human; settings: day 5
Procedure: as §1
Twenty-four hours after transfection, cells were seeded in 96-well plates at a density of 2000 cells per well. The cell proliferation assay was performed on days 1, 3 and 5 by incubating 10 μl WST-1 (Roche Applied Science, Mannheim, Germany) in the culture medium for 1 h and reading the absorbance at 450 and 630 nm. The cell proliferation rate was calculated by […]. Experiments for the cell proliferation assay were performed at least three times.

[4] = test system: HCT116 cells; test: Colorectal cancer xenografts (HCT116) in NOD/SCID mice, tumor volume; type: in vivo; settings: day 24
Procedure: (§2) When solid and palpable tumors with an average volume of 100-150 mm^3 were formed (at day 14), mice were randomly separated into four groups such that each group was treated either with negative control miRNA, miR-129 alone, 5-FU alone or miR-129 and 5-FU together. The miRNAs were complexed with siPORTamine and injected intratumorally while 5-FU (50 μg g^−1) was injected systemically via the tail vein. All injections were provided in 3-day intervals for a total of three times before the tumors were collected at day 24. […] Importantly, despite the overexpression, the expression levels of miR-129 copy number remained within the physiological range (less than 20 copies/cell based on cycle threshold value at 30, which is equal to the expression of miR-129 in normal colon mucosa). Moreover, the control tumor xenografts had no miR-129 expression (cycle threshold value at 35).
Ten-twelve week old NOD/SCID mice (Jackson Laboratories, Bar Harbor, […]., USA) were used for tumor implantation. All animal procedures were approved by the Stony Brook University Institutional Animal Care and Use Committee (IACUC). The tumor implantation and miRNA injection protocol was modified from Trang et al. (see Trang P., et al., Oncogene. (2010) 29(11):1580-7). The mice were anesthetized by isoflurane inhalation. HCT116 cells were subcutaneously injected into the lower back areas of the mice using 2.5×10^6 cells in 100 μl McCoy's 5A with 50% matrigel (BD Biosciences). The tumor size was measured using a caliper and tumor volume was calculated using the formula V=length×width^2/2. When tumor volumes reach 100-150 mm^3 at day 14 post-injection, the mice were randomly assigned into four groups. For the first two groups, 10 μM negative miRNA or miR-129 precursor (Ambion) complexed with 1.6 μl siPORTAmine (Ambion) in 50 μl McCoy's 5A was injected into the tumors every three days. For the third group, 5-FU (Sigma-Aldrich) was injected at 50 μg/g via the tail vein every three days. Finally, for the last group, both miR-129 precursor and 5-FU were injected as described above. The mice were euthanized on day 24 post-injection by CO2 inhalation, and tumors were dissected out for RNA isolation.

[5] = set-up: species or system NOD/SCID mice; settings: mouse, in vivo
Procedure: as §2, with “35). […]” for “35).”
The miR-129 specific primer and the internal control RNU44 gene were purchased from Ambion. cDNA synthesis was performed by the High Capacity cDNA Synthesis Kit (Applied Biosystems, CA, USA) with miRNA specific primers. […] Expression level of miR-129 was calculated by the ΔΔCT method based on the internal control RNU44, normalized to the control group and plotted as relative quantification (RQ).

## miR-129: nucleic acid having a sequence of CUUUUUGCGGUCUGGGCUUGC (SEQ ID NO. 1); miR-129 precursor from Ambion used (chemistry not given here; listed as Homo sapiens)
[1]
  firefly luciferase activity of pMIR-REPORT-3′-UTR-BCL2 (wild-type): significantly inhibited the luciferase activity
  luciferase activity of reporter with 3′-UTR of BCL2 with three point mutations in the miR-129 binding site (mutant): did not inhibit the luciferase activity
[2]
  apoptosis (proportion of cells annexin V positive and propidium iodide negative): increased apoptosis significantly
[3]
  cell proliferation reduced compared to negative controls: 44.7%
[4]; HCT116 xenograft, compared with negative miRNA or single agents
  inhibition of tumor growth (in words): sufficiently reduced tumor size
[4]; treated days 14, 17, 20, miRNA intratumoral with siPORTamine, 5-FU 50 μg/g tail vein, control negative miRNA
  average tumor volume, % of the control group: ~84.4%
[5]
  miR-129 copy number in injected tumors: less than 20 copies/cell
